In brackets after ≈: the same amount, converted by molar mass.
Experiments:
Format in all cases: functional
Settings in all cases: read-out: ED50 (the source's name)
[1] = test system: HCT-15; assay: Cytotoxicity against human HCT15 cells
[2] = test system: XF498; assay: Cytotoxicity against human XF498 cells
[3] = test system: SK-OV-3; assay: Cytotoxicity against human SK-OV-3 cells
[4] = test system: SK-MEL-2; assay: Cytotoxicity against human SK-MEL-2 cells
[5] = test system: A549; assay: Cytotoxicity against human A549 cells

SMILES | EC50 [1] [µg/mL] | EC50 [2] [µg/mL] | EC50 [3] [µg/mL] | EC50 [4] [µg/mL] | EC50 [5] [µg/mL]
C=CCCCCCCCC#CC#C/C=C\C(C)=O [MONTIPORYINE D] | > 50 | > 50 | 45.1 (≈ 186 µM) | 43.1 (≈ 178 µM) | > 50
CCCCCCCC#CC#CC1=CC(=O)NCCC1 [MONTIPORYINE E] | > 50 | > 50 | > 50 | > 50 | > 50
CCCCCCCC#CC#CC1CC(=O)C=C(C)C1 (stereo not given) [MONTIPORYINE F] | 45.1 (≈ 176 µM) | 31.3 (≈ 122 µM) | 29.2 (≈ 114 µM) | 36.7 (≈ 143 µM) | > 50
CCCCCCCC#CC#C/C=C/C(C)=O [MONTIPORYNE A] | 3.7 (≈ 17.1 µM) | 1.9 (≈ 8.78 µM) | 3.2 (≈ 14.8 µM) | 1.4 (≈ 6.47 µM) | > 50
CCCCCCCC#CC#C/C=C\C(C)=O [MONTIPORYNE B] | > 50 | > 50 | 25.9 (≈ 120 µM) | 42.6 (≈ 197 µM) | > 50
C=CCCCCCCCC#CC#C/C=C/C(C)=O [MONTIPORYNE C] | 5.2 (≈ 21.5 µM) | 3.2 (≈ 13.2 µM) | 2.5 (≈ 10.3 µM) | 1.5 (≈ 6.19 µM) | > 50

— ChEMBL document CHEMBL1155622, “New acetylenic compounds from the stony coral Montipora sp” (2000)
